Results on three compounds are retold here after US20140141069A1, “BETA-GUANIDINOPROPIONIC ACID FOR THE TREATMENT OF HYPERTENSION” (priority 2011, published 2014).

Molecules are shown by their SMILES. Where two headings read alike, the source gives them in different places.

Data set [1] concerns ADP-dependent platelet aggregation. Kind of data set: Blood CK titration at 1 μmol/L ADP, platelet aggregation (pilot experiment). In kind it is cell-based.
Data set [2] has as its system creatine kinase. Particulars: equimolar quantities of DNFB, cited from earlier work.
Data set [3] relates to SHR. Kind of data set: Tail cuff blood pressure in SHR on a diet with β-GPA versus standard diet (Example 5). In kind it is in vivo, rat. As to the method:
Male, non-obese, normoglycaemic, 16-weeks-old SHR without lipid abnormalities were randomly assigned to a diet with β-GPA versus a standard diet without β-GPA (N=8 per group). Blood pressure was measured weekly with the tail cuff method. All blood pressure measurements were performed unblinded under equal conditions. Body temperature was kept constant during the measurements at 36-38° C. […] Data are expressed as mean (SEM).

Data set [4] has as its system SHR mesenteric arteries. Briefly: Vasodilation/contractility of SHR mesenteric arteries in vitro in a wire myograph with the CK-inhibitor DNFB. As to conditions: p<0.01. On the set-up: species or system rat.
For data set [5], the system named is SH rats. Kind of data set: Tail cuff blood pressure in SH adult rats given 3% β-GPA (Example 4). Type of data set: in vivo, rat. Particulars: 3% β-GPA in feed, tailcuff method. As to the method: A total of 24 SH adult rats are divided into 4 groups: the test group is given 3% β-GPA , a second group is given 3% creatine, a third group is given 3% creatine +3% β-GPA; and a control group receives only normal feed. SH rats are usually also associated with high creatine kinase levels, although it is unknown whether this is cause or result of the spontaneous high blood pressure. […] Blood pressure was measured at the tail using standard methods (tailcuff method). In the control group, the blood pressure rises. An absence in the rise of blood pressure or even a reduction in the blood pressure in the test group indicates the blood pressure lowering effect of β-GPA. In order to exclude a possible effect of creatine deficiency or a possible effect of creatine itself on the blood pressure level, the two additional control groups (3% creatine or 3% creatine +3% β-GPA).

Data set [6] has as its system Spontaneous Hypertension (SH) rats. Kind of data set: Blood pressure of non-obese SH rats on creatine-free diet with 0.1% β-guanidinopropionic acid. In kind it is in vivo, rat. As to conditions: feed contained 0.1% β-guanidinopropionic acid. The text has this:
The effects of β-guanidinopropionic acid can not be explained by, for example, a reduction in weight.

A short description of data set [7]: Certified toxicological testing of marketed β-guanidinopropionic acid. Particulars: preliminary tests of product marketed for human use.
For data set [8] the following is noted: cited from earlier work.
The subject of data set [9] is creatine kinase. As to conditions: creatine kinase reaction; cited from earlier work.
Data set [10] concerns myocardial phosphocreatine and creatine. Particulars: high doses; cited from earlier work.
The test system of data set [11] is rats. Particulars: 1% in rat chow, up to 8 weeks of feeding; cited from earlier work.

In the case of `CN(CC(=O)O)C(=N)NP(=O)(O)O` [CrP, phosphocreatine], the “Inhibition of ADP-dependent platelet aggregation with increasing CK” value in [1] is reported as “greater inhibition of ADP-dependent platelet aggregation”.

With `O=[N+]([O-])c1ccc(F)c([N+](=O)[O-])c1` [DNFB, dinitrofluorobenzene], the “Mean inhibition of contraction” value is given as 0.32 in data set [2] (blacks) and 0.90 in [2] (whites).

In the case of `NC(N)=NCCC(=O)O` [β-GPA, 3-(diaminomethylideneamino)propanoic acid], the Weight changes entry in [3] (diet with β-GPA) is given as “no significant weight changes”. Moreover, the Systolic pressure reduction in data set [3] (diet with β-GPA vs controls, 4 weeks, tail cuff, mean (SEM), N=8 per group, p<0.001) is reported as −42.7 (5.5) mm Hg. In data set [3] (diet with β-GPA vs controls, tail cuff, mean (SEM), p<0.001), the Diastolic pressure reduction was −35.3 (4.8) mm Hg. Moreover, the “Residual contractility after the CK inhibitor DNFB, versus controls” value in [4] (mesenteric arteries of rats treated with β-GPA compared to controls, DNFB, mean (SEM)) was −41.3 (13.0) %. Besides, in data set [4] (rats treated with β-GPA before sacrifice, in vitro incubation with dinitrofluorobenzene, N=5 to 6 per group), the “Vasodilation of mesenteric arteries compared to controls” value was “significantly increased”. In addition, in data set [5], the “Blood pressure level versus control SH rats” value is “lower than that of the control SH rats”. For the same compound, the “Blood pressure rise characteristic for SH rats” value in data set [6] is on record as “did not show blood pressure rise”. In addition, the Certified toxicological testing entry in [7] is on record as “passed certified toxicological testing”. For the same compound, in [8], the Solubility in water result is on record as “up to 50 mg/ml”. Besides, in data set [9], the “in vitro Vmax relative to the Vmax values of creatine and phosphocreatine” value was under 1%. The “Reduction of myocardial phosphocreatine and creatine concentrations” value in data set [10] was “up to 80%”. For the same compound, the “Cardiac function or sprint capacity in vivo” value in data set [11] was “does not lead to reduced cardiac function or overtly reduced sprint capacity”.
